The test can be described thus: Agonist activity at human sensory neuron-specific G-protein coupled receptor expressed in HEK293 cells assessed as intracellular calcium mobilization by FLIPR. Format: functional, cell-based. For orientation: Calcium assays in cells follow changes in intracellular calcium, usually with a dye or a luminescent sensor.

For orientation: EC50 means the concentration that produces a half-maximal response. On to `CC(C)[C@@H](NC(=O)[C@@H]1CCCN1C(=O)[C@H](Cc1ccc(Br)cc1)NC(=O)[C@@H](C)NC=O)C(=O)N[C@H](C(=O)N[C@H](Cc1c[nH]c2ccccc12)C(=O)N[C@@H](CCCNC(=N)N)C(=O)N[C@H](CS(=O)(=O)O)C(=O)N[C@@H]1C(=O)N(C)[C@@H](CCC(N)=O)C(=O)N[C@H](C(C)C)C(=O)N2CCC[C@H]2C(=O)N[C@H](CC(=O)O)C(=O)O[C@@H]1C)C(C)(C)C` [POLYDISCAMIDE D], for which the EC50 was determined as 2.8 µM.

As to `CCC(C)(C)[C@H](NC(=O)[C@H](NC(=O)[C@@H]1CCCN1C(=O)[C@H](Cc1ccc(Br)cc1)NC(=O)[C@@H](C)NC=O)C(C)(C)C)C(=O)N[C@H](Cc1c[nH]c2ccccc12)C(=O)N[C@@H](CCCNC(=N)N)C(=O)N[C@H](CS(=O)(=O)O)C(=O)N[C@@H]1C(=O)N(C)[C@@H](CCC(N)=O)C(=O)N[C@H](C(C)C)C(=O)N2CCC[C@H]2C(=O)N[C@H](CC(=O)O)C(=O)O[C@@H]1C` [POLYDISCAMIDE B], the EC50 was determined as 1.26 µM.

Regarding `CCC(C)(C)[C@H](NC(=O)[C@H](NC(=O)[C@@H]1CCCN1C(=O)[C@H](Cc1ccc(Br)cc1)NC(=O)[C@@H](C)NC=O)C(C)C)C(=O)N[C@H](Cc1c[nH]c2ccccc12)C(=O)N[C@@H](CCCNC(=N)N)C(=O)N[C@H](CS(=O)(=O)O)C(=O)N[C@@H]1C(=O)N(C)[C@@H](CCC(N)=O)C(=O)N[C@H](C(C)C)C(=O)N2CCC[C@H]2C(=O)N[C@H](CC(=O)O)C(=O)O[C@@H]1C` [POLYDISCAMIDE C], the EC50 worked out at 3.57 µM.

Source of the values: ChEMBL document CHEMBL1143076, “Polydiscamides B-D from a marine sponge Ircinia sp. as potent human sensory neuron-specific G protein coupled receptor agonists” (J Nat Prod, 2008).
